Patent publication US7504416B2, “4-substituted quinolines as antitumor agents” (AstraZeneca AB, priority 2000, dated 2009)

System: HT29 human colon tumour cells
Experiment: Cell proliferation assay
Format: cell-based
Settings: HT-29, 72 hours incubation
Procedure: Cell Proliferation Assays
Cells were seeded into multi-well plates at 20 000-40 000 cells/ml in growth medium containing 5% FCS and incubated overnight at 37° C. The compounds were prepared in fresh medium at an appropriate concentration and added to the wells containing the cells. These were then incubated for a further 72 hours. Cells were then either removed from the wells by incubating with trypsin/EDTA and counted using a Coulter counter, or treated with XTT/PMS in PBSA and optical densities read at 450 nm. […] For example, Compound No 3 gave an IC50 of 1.0 μM in HT29 human colon tumour cells.

Q: COc1cc2ncc(C#N)c(Nc3ccc(Oc4ccccc4OCC(=O)NCC(=O)N4CCN(C)CC4)cc3)c2cc1OC [Compound 3] was tested. Which IC50 did it give?
A: 1 µM
